Consider two molecules from ChEMBL document CHEMBL4419169, “Novel Ferroportin Inhibitors” (2018).

Structures are written as SMILES. Activity calls are given as the source filed them. The calls are words filed in the database; no cut-off is given here.

For assay [1], the target named is T1, Ferroportin (Mus musculus, UniProt Q9JHI9).
T1 sequence (Q9JHI9 whole entry): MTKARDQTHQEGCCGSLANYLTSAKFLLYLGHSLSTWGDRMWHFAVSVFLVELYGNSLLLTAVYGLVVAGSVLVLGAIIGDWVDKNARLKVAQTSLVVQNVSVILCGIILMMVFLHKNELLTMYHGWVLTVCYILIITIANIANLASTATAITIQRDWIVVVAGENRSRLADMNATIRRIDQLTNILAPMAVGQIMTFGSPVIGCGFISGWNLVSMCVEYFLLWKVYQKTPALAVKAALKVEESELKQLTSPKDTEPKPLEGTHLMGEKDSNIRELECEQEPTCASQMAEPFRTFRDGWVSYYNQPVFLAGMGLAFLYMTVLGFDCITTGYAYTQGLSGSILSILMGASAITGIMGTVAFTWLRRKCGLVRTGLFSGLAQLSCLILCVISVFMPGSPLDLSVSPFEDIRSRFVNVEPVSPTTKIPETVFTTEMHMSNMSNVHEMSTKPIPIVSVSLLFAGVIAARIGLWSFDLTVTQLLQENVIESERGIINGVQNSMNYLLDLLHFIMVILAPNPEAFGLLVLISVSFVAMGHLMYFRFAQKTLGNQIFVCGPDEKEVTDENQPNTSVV
The experiment in a line: Inhibition of ferroportin in mouse J774 cells assessed as reduction in binding of hepcidin to ferroportin pre-incubated for 15 mins before TMR-hepcidin addition and further incubated for 2 hrs by fluorescence based hepcidin internalization assay. Type of assay: cell-based.

Assay [2] deals with T2, Ferroportin (Homo sapiens, UniProt Q9NP59).
T2 sequence (Q9NP59 whole entry): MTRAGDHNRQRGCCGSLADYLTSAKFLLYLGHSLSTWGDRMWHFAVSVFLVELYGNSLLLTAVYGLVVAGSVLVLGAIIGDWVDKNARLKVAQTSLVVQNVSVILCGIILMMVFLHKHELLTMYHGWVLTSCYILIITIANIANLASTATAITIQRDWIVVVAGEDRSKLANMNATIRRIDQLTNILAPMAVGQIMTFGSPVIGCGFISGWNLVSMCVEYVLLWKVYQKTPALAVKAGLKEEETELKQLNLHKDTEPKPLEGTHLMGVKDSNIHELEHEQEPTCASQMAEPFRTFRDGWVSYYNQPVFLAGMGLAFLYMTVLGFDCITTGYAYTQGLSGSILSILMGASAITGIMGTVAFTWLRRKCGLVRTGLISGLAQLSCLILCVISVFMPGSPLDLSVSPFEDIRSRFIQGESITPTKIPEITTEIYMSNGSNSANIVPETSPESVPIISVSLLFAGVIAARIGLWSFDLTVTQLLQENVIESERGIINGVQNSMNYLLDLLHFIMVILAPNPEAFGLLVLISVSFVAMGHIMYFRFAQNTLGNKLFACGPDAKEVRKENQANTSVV
The experiment in a line: Inhibition of GFP-tagged human ferroportin expressed in HEK293 #354 cells assessed as reduction in Fpn-mediated iron efflux incubated overnight by iron regulatory element -driven beta-lactamase reporter gene assay. Type of assay: cell-based. In general terms: Reporter assays use an easily measured gene product as a stand-in for the process of interest.

The target in assay [3] is T2, Ferroportin. The experiment in a line: Inhibition of GFP-tagged human ferroportin expressed in HEK293 #354 cells assessed as induction of ferroportin internalization and degradation incubated overnight by FACS assay. Type of assay: cell-based. The settings on record: read-out: EC50 (the source's name). In general terms: In flow cytometry, cells or beads pass a laser one at a time.

Assay [4] concerns the target T3, Ferroportin (Mus musculus) (UniProt Q9JHI9).
T3 sequence (whole entry): T1 sequence (Q9JHI9 whole entry)
The experiment in a line: Inhibition of ferroportin in mouse J774 cells assessed as induce ferroportin ubiquitination and degradation at […] incubated for 10 mins by immunoprecipitation assay. Type of assay: cell-based.

Assay [5] has as its target T3, Ferroportin (Mus musculus). The assay can be described thus: Inhibition of ferroportin in mouse J774 cells assessed as induce ferroportin ubiquitination and degradation at […] incubated for 120 mins by immunoprecipitation assay. Type of assay: cell-based.
The subject of assay [6] is Mus musculus. The assay can be described thus: Induction of hypoferremia in wild type C57BL/6 mouse assessed as decrease in serum iron levels at 10 mg/kg, po measured after 3 hrs post dose. Type of assay: functional. More on the design: scale not given: the % may be the effect or the level left.
Assay [7] deals with Mus musculus. The assay can be described thus: Induction of hypoferremia in wild type C57BL/6 mouse assessed as decrease in serum iron levels at 30 mg/kg, po measured after 3 hrs post dose. Type of assay: functional. More on the design: scale not given: the % may be the effect or the level left.
In assay [8] the test system is Mus musculus. The assay can be described thus: Induction of hypoferremia in wild type C57BL/6 mouse assessed as decrease in serum iron levels at 100 mg/kg, po measured after 3 hrs post dose. Type of assay: functional. More on the design: scale not given: the % may be the effect or the level left.
The subject of assay [9] is Rattus norvegicus. The experiment in a line: Prevention of iron absorption in anemic Wistar rat model of iron absorption assessed as inhibition of increase in serum iron at 10 mg/kg, po pre-dosed 1 hr before ferrous sulfate dosing and measured 3 hours after iron dosing. Type of assay: functional.
The subject of assay [10] is Rattus norvegicus. The assay can be described thus: Prevention of iron absorption in anemic Wistar rat model of iron absorption assessed as inhibition of increase in serum iron at 30 mg/kg, po pre-dosed 1 hr before ferrous sulfate dosing and measured 3 hours after iron dosing. Type of assay: functional.
In assay [11] the test system is Rattus norvegicus. The assay can be described thus: Prevention of iron absorption in anemic Wistar rat model of iron absorption assessed as inhibition of increase in serum iron at 100 mg/kg, po pre-dosed 1 hr before ferrous sulfate dosing and measured 3 hours after iron dosing. Type of assay: functional.
In assay [12] the test system is Mus musculus. The assay can be described thus: Prevention of hyperferremia in iron overloaded beta2-microglobulin deficient mouse assessed as reduction in serum iron level at 50 mg/kg, po measured after 3 hrs relative to control. Type of assay: functional, organism-based.
Assay [13] has as its system Mus musculus. The experiment in a line: Prevention of iron overload in beta2-microglobulin deficient female mouse assessed as increase in spleen iron accumulation at 60 mg/kg, po BID pre-dosed followed by exposure to iron-containing water and same regime was repeated for 14 days relative to control. Type of assay: functional.
In assay [14] the test system is Mus musculus. The experiment in a line: Prevention of iron overload in beta2-microglobulin deficient male mouse assessed as increase in spleen iron accumulation at 60 mg/kg, po BID pre-dosed followed by exposure to iron-containing water and same regime was repeated for 14 days relative to control. Type of assay: functional.
The subject of assay [15] is Mus musculus. The assay can be described thus: Prevention of iron overload in beta2-microglobulin deficient female mouse assessed as reduction in total liver iron accumulation at 60 mg/kg, po BID pre-dosed followed by exposure to iron-containing water and same regime was repeated for 14 days relative to control. Type of assay: functional. More on the design: scale not given: the % may be the effect or the level left.

Assay [16] has as its system Mus musculus. The assay can be described thus: Prevention of iron overload in beta2-microglobulin deficient male mouse assessed as reduction in total liver iron accumulation at 60 mg/kg, po BID pre-dosed followed by exposure to iron-containing water and same regime was repeated for 14 days relative to control. Type of assay: functional. Set-up: scale not given: the % may be the effect or the level left.

Assay [17] concerns Mus musculus. The assay can be described thus: Prevention of iron overload in beta2-microglobulin deficient female mouse assessed as reduction in [58Fe] liver iron accumulation at 60 mg/kg, po BID pre-dosed followed by exposure to iron-containing water and same regime was repeated for 14 days relative to control. Type of assay: functional. More on the design: scale not given: the % may be the effect or the level left.

Assay [18] has as its system Mus musculus. The assay can be described thus: Prevention of iron overload in beta2-microglobulin deficient male mouse assessed as reduction in [58Fe] liver iron accumulation at 60 mg/kg, po BID pre-dosed followed by exposure to iron-containing water and same regime was repeated for 14 days relative to control. Type of assay: functional. More on the design: scale not given: the % may be the effect or the level left.

Assay [19] relates to Mus musculus. The experiment in a line: Correction of anemia in mouse model of transfusion-independent beta-thalassemia intermedia assessed as hemoglobin levels at 60 mg/kg, po BID for 46 days and measured at day 20 to 48 (reference value: 70 to 80 g/L). Type of assay: functional.
Assay [20] deals with Mus musculus. The experiment in a line: Disease modifying capacity in mouse model of transfusion-independent beta-thalassemia intermedia assessed as increase in blood erythrocyte counts at 20 mg/kg, po BID for 46 days relative to control. Type of assay: functional.
For assay [21], the system named is Mus musculus. The experiment in a line: Disease modifying capacity in mouse model of transfusion-independent beta-thalassemia intermedia assessed as increase in blood erythrocyte counts at 60 mg/kg, po BID for 46 days relative to control. Type of assay: functional.
The subject of assay [22] is Mus musculus. The assay can be described thus: Disease modifying capacity in mouse model of transfusion-independent beta-thalassemia intermedia assessed as decrease in blood reticulocyte counts at 20 mg/kg, po BID for 46 days relative to control. Type of assay: functional. Set-up: scale not given: the % may be the effect or the level left.
In assay [23] the test system is Mus musculus. The experiment in a line: Disease modifying capacity in mouse model of transfusion-independent beta-thalassemia intermedia assessed as decrease in blood reticulocyte counts at 60 mg/kg, po BID for 46 days relative to control. Type of assay: functional. More on the design: scale not given: the % may be the effect or the level left.
For assay [24], the system named is Mus musculus. The assay can be described thus: Disease modifying capacity in mouse model of transfusion-independent beta-thalassemia intermedia assessed as increase in hematocrit levels at 20 mg/kg, po BID for 46 days relative to control. Type of assay: functional.
The test system of assay [25] is Mus musculus. The experiment in a line: Disease modifying capacity in mouse model of transfusion-independent beta-thalassemia intermedia assessed as increase in hematocrit levels at 60 mg/kg, po BID for 46 days relative to control. Type of assay: functional.
Assay [26] relates to Mus musculus. The experiment in a line: Disease modifying capacity in mouse model of transfusion-independent beta-thalassemia intermedia assessed as decrease in leukocyte counts level at 20 mg/kg, po BID for 46 days relative to control. Set-up: scale not given: the % may be the effect or the level left. Type of assay: functional.
Assay [27] relates to Mus musculus. The experiment in a line: Disease modifying capacity in mouse model of transfusion-independent beta-thalassemia intermedia assessed as decrease in relative spleen weight at 60 mg/kg, po BID for 46 days relative to control. Type of assay: functional. More on the design: scale not given: the % may be the effect or the level left.
The subject of assay [28] is Mus musculus. The experiment in a line: Disease modifying capacity in mouse model of transfusion-independent beta-thalassemia intermedia assessed as decrease in [58Fe] spleen iron content at 20 mg/kg, po BID for 46 days relative to control. Type of assay: functional. More on the design: scale not given: the % may be the effect or the level left.
Assay [29] has as its system Mus musculus. The experiment in a line: Disease modifying capacity in mouse model of transfusion-independent beta-thalassemia intermedia assessed as decrease in [58Fe] spleen iron content at 60 mg/kg, po BID for 46 days relative to control. Type of assay: functional. Set-up: scale not given: the % may be the effect or the level left.
For assay [30], the system named is Mus musculus. The assay can be described thus: Disease modifying capacity in mouse model of transfusion-independent beta-thalassemia intermedia assessed as prevention of liver [58Fe] loading at 20 mg/kg, po BID for 46 days relative to control. Type of assay: functional.
Assay [31] deals with Mus musculus. The assay can be described thus: Disease modifying capacity in mouse model of transfusion-independent beta-thalassemia intermedia assessed as prevention of liver [58Fe] loading at 60 mg/kg, po BID for 46 days relative to control. Type of assay: functional.
The subject of assay [32] is Mus musculus. The assay can be described thus: Prevention of hyperferremia in iron overloaded beta2-microglobulin deficient female mouse assessed as reduction in serum iron level at 60 mg/kg, po measured after 1 hr relative to control. More on the design: scale not given: the % may be the effect or the level left. Type of assay: functional.
For assay [33], the system named is Mus musculus. The experiment in a line: Prevention of hyperferremia in iron overloaded beta2-microglobulin deficient male mouse assessed as reduction in serum iron level at 60 mg/kg, po measured after 1 hr relative to control. Type of assay: functional. More on the design: scale not given: the % may be the effect or the level left.

On to `O=C(NCc1ncccc1F)c1cn(CCNCCc2nc3ccccc3[nH]2)nn1`, for which the IC50 in assay [1] is 11 nM. In addition, the EC50 in [2] came out at 170 nM. The DC50 in assay [3] stood at 69 nM.
`Cl.Cl.Cl.O=C(NCc1ncccc1F)c1csc(CCNCc2nc3ccccc3[nH]2)n1`: the inhibition result in assay [4] and in [5] was “Active” in each case. The Activity in assay [6] is given as 10%; in assay [7], 30%; in [8], 50%; in assay [13] it was 9 - 85%; in assay [14], 24 - 36%; in [15], 66 - 67%. In addition, the Activity is recorded as 69 - 85% in [16]; 67 - 80% in assay [17]; 81 - 95% in [18]; 13 g/L in assay [19]; 2% in assay [20]; 22% in assay [21]. The Activity in [22] was found to be 19%; in [23], 43%; in assay [24] it was 0%; in assay [25], 1%; in assay [26] it was 0%; in assay [27] it was 48%. The Activity is recorded as 19% in assay [28]; 51% in [29]; 20% in [30]; 48% in assay [31]; 32 - 58% in assay [32]; 10 - 47% in assay [33]. In addition, the inhibition in vivo at 10 mg/kg in assay [9] is 32%. Further, the inhibition in vivo at 30 mg/kg in assay [10] was 53%. Also, the inhibition in vivo at 100 mg/kg in assay [11] came out at 97%. In addition, the outcome in assay [12] was Active.

As a reminder, the IC50 is the concentration that inhibits the measured activity by half. A word on the EC50: it is the concentration needed to bring the measured effect to its halfway point. As usually defined, the inhibition in vivo is the share of the control response that was lost under treatment.
